# Data reported in US5925667A, “Pyrrolidine derivative, anti-ulcer drug, and antibacterial drug” (Shiseido Co., Ltd., priority 1997, dated 1999).
# Legend:
# Slc:ICR mice = tested on: Slc:ICR mice; design: species or system male Slc:ICR mice; settings: mouse, in vivo
# Experimental: AT: Single Dose Toxicity Pretest
# Male Slc:ICR mice (5-week-old) were used. Each group has 3 to 5 mice and each mouse was fasted, but allowed free access to water, for 4 to 5 hours from 9 a.m. in the test day. Then, 2,000 mg/10 ml/kg of the sample compound dissolved or suspended in an aqueous solution of 0.5% sodium carboxymethyl cellulose was orally administered thereto. To a control, only the vehicle was administered. […] The body weight was measured before and after the fasting as well as at the same time everyday. The dead animals were immediately subjected to autopsy and their organs were observed by naked eyes. Also, the living animals were sacrificed with ether or carbon dioxide one week after the administration and then their organs were observed by naked eyes.
# The toxicity at the single dose of 2,000 mg/kg of the sample compound was expressed as being classified into 5 levels.
# 5: Mortality rate is 0%; no toxicity is found at all both in behavior and organs.
# 4: Mortality rate is 0%; while no toxicity is found in organs, slight toxicity is observed in behavior or body weight increase.
# 3: While there is a dead animal (though not all the animals are dead), no toxicity is found in organs.
# 2: Regardless of whether there is a dead animal or not, toxicity is found in organs.
# 1: All the animals are dead.
# stress ulcer = experiment: WIS: Restraint and Water Immersion Stress-Induced Ulcer Inhibition Test; assay type: in vivo, male Crj:SD or Slc:SD rats; settings: rat, 100 mg/kg oral, 7 h water immersion stress; read-out: ulcer formation inhibitory rate (WIS)
# Experimental: WIS: Restraint and Water Immersion Stress-Induced Ulcer Inhibition Test
# The degree of inhibition of the stress ulcer formation is tested.
# Male Crj:SD or Slc:SD rats (6 to 7-week-old) were fasted overnight, but allowed free access to water. Each group has 5 to 8 of these rats. The sample compound was dissolved or suspended in an aqueous solution of 0.3% sodium carboxymethylcellulose or 0.05% Tween 80 and then was orally administered (100 mg/10 ml/kg. To a control group, the vehicle was administered. 10 minutes later, the rats were placed in a stress cage and immersed to the level of xipfoid process in a water bath (21° C.) for 7 hours. At the end of the stress, the rats were sacrificed by inhalation of ether or carbon dioxide. Then, the stomach of each was removed, inflated by injecting 10 ml of 5% formalin neutral buffer solution, and immersed in 1% formalin neutral buffer solution for 30 minutes or more to be fixed. The stomach was incised along the greater curvature and then the length of each erosion in the glandular portion was determined under dissecting microscope. The sum of the length of erosions per stomach was defined as ulcer index (UI).
# The effect obtained when 100 mg/kg of the sample compound had been administered was expressed as ulcer formation inhibitory rate (%) as follows:
# ulcer formation inhibitory rate (%)=(1-(UI in sample group/UI in control group))×100
# [1] = MTT: Cell Damaging and Protecting Effect Test; assay type: cell-based, male Japanese White rabbit; settings: rabbit, gastric mucosa cells, final concentration 10^-4 M, smaller value is better, read-out: cell damaging rate (MTT)
# From the text: MTT: Cell Damaging and Protecting Effect Test
# It is confirmed that there is no toxicity in cell level. Those having a toxicity in cell level are inappropriate as an anti-ulcer drug.
# A male Japanese White rabbit (2.5 to 3 kg) was anesthetized to death by Nembutal™ and, immediately thereafter, its stomach was removed. The greater curvature of the stomach was incised so as to remove the stomach contents therefrom. After the mucosal surface was washed with HBSS (Hanks' Balanced Salt Solution), the stomach in ice-cooled HBSS was transferred to a laboratory. Then, after the pyloric antrum was removed, the gastric corpus mucosa was separated by a spatula and then minced into 2 to 3 mm^3 pieces in BME (Basal Medium Eagle). Thereafer, these pieces were shaken at 120 to 130 cycles/minute for 15 minutes at 37° C. in BME 60 ml containing 280 U/ml of dispase and 30 to 50 U/ml of collagenase. Here, the concentration of collagenase was appropriately changed for each lot in view of the state of cells. The pieces were washed twice with EBSS (Earle's Balanced Salt Solution) containing 1 mM of EDTA and then shaken in MEM (Minimum Essential Medium) containing 1 mM of EDTA at 37° C. for 5 minutes. Subsequently, they were shaken in the dispase and collagenase having the same concentrations as those mentioned above for 15 minutes so as to remove the supernatant and then further shaken at 37° C. for 50 to 60 minutes at 120 to 130 cycles/minute. Then, after being washed twice with HBSS, Ham F12 containing 2% of Ultrocer G™ was used to attain the concentration of 1×10^6 cells/ml. Thus formed suspension was dispensed in each well of a 96-well plate by 200 μl. The plate was incubated in the atmosphere composed of 5% CO2 and 95% air at 37° C. for three days so as to attain a confluent state and then subjected to MTT assay.
# The sample compound was dissolved in DMSO so as to attain a concentration of 10^-2 M and then diluted with HBSS containing 2% of Ultrocer G™ so as to attain a final concentration of 10^-4 M. To each group, which 8 wells were used for, 10 μl of MTT reagent was added immediately after 100 μl of the medium in each well was exchanged for same volume of the resulting solution of the sample compound. After being incubated in an atmosphere composed of 5% CO2 and 95% air at 37° C. for 4 hours, thus formed solution was centrifuged and then its supernatant was discarded. Subsequently, 100 μl of 100% ethanol was added to the residue so as to dissolve MTT formazan. Then, the absorbance (OD: 570 to 630) was measured by a microplate reader. This method utilizes a phenomenon in which MTT is changed to MTT formazan only by mitochondria of living cells so as to change color.
# The cell damaging or cell protecting effect of the sample compound at the final concentration of 10^-4 M was expressed as cell damaging rate (%) as follows:
# cell damaging rate (%)=(1-(absorbance in sample group/absorbance in control group))×100
# Accordingly, the smaller value is better in the cell damaging rate.
SMILES,"toxicity at single dose (AT), 5 levels (Slc:ICR mice)",inhibition in vivo at 100 mg/kg (stress ulcer),"cytotoxicity at 4 h, 100 µM [1]"
"CCN1CCCC1CNC(=O)c1ccc(OCC=C(C)C)c(OCC=C(C)C)c1 (stereo not drawn) [Example 7, 1-ethyl-2-(3,4-diprenyloxybenzoylaminomethyl)pyrrolidine]",3,92%,28%
"CCN1CCCC1CNC(=O)c1cc(OC/C=C(\C)CCC=C(C)C)ccc1OC/C=C(\C)CCC=C(C)C (stereo not drawn) [Example 10, 1-ethyl-2-(2,5-digeranyloxybenzoylaminomethyl)pyrrolidine]",3,74%,15%
"CCN1CCCC1CNC(=O)c1cc(OCC=C(C)C)ccc1OCC=C(C)C (stereo not drawn) [Example 6, 1-ethyl-2-(2,5-diprenyloxybenzoylaminomethyl)pyrrolidine]",3,84%,34%
